target: human ACC2 (Homo sapiens (Human), UniProt O00763); test: ACC2 assay, spectrophotometric 384 well assay (NADH-linked, coupled lactate dehydrogenase/pyruvate kinase reaction); format: biochemical; settings: hACC2 construct lacking the 128 N-terminal amino acids; 25° C., 340 nm over 15 minutes
Method in brief: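 N-terminally truncated human ACC2 (lacking 128 residues) expressed in insect cells; coupled PK/LDH read-out of ADP as NADH loss at 340 nm, 15 min, 25 °C. Tris pH 7.5 with citrate and KHCO3; 200 μM acetyl-CoA, 500 μM ATP, 1% DMSO.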

human ACC2, sequence (O00763 129-2458): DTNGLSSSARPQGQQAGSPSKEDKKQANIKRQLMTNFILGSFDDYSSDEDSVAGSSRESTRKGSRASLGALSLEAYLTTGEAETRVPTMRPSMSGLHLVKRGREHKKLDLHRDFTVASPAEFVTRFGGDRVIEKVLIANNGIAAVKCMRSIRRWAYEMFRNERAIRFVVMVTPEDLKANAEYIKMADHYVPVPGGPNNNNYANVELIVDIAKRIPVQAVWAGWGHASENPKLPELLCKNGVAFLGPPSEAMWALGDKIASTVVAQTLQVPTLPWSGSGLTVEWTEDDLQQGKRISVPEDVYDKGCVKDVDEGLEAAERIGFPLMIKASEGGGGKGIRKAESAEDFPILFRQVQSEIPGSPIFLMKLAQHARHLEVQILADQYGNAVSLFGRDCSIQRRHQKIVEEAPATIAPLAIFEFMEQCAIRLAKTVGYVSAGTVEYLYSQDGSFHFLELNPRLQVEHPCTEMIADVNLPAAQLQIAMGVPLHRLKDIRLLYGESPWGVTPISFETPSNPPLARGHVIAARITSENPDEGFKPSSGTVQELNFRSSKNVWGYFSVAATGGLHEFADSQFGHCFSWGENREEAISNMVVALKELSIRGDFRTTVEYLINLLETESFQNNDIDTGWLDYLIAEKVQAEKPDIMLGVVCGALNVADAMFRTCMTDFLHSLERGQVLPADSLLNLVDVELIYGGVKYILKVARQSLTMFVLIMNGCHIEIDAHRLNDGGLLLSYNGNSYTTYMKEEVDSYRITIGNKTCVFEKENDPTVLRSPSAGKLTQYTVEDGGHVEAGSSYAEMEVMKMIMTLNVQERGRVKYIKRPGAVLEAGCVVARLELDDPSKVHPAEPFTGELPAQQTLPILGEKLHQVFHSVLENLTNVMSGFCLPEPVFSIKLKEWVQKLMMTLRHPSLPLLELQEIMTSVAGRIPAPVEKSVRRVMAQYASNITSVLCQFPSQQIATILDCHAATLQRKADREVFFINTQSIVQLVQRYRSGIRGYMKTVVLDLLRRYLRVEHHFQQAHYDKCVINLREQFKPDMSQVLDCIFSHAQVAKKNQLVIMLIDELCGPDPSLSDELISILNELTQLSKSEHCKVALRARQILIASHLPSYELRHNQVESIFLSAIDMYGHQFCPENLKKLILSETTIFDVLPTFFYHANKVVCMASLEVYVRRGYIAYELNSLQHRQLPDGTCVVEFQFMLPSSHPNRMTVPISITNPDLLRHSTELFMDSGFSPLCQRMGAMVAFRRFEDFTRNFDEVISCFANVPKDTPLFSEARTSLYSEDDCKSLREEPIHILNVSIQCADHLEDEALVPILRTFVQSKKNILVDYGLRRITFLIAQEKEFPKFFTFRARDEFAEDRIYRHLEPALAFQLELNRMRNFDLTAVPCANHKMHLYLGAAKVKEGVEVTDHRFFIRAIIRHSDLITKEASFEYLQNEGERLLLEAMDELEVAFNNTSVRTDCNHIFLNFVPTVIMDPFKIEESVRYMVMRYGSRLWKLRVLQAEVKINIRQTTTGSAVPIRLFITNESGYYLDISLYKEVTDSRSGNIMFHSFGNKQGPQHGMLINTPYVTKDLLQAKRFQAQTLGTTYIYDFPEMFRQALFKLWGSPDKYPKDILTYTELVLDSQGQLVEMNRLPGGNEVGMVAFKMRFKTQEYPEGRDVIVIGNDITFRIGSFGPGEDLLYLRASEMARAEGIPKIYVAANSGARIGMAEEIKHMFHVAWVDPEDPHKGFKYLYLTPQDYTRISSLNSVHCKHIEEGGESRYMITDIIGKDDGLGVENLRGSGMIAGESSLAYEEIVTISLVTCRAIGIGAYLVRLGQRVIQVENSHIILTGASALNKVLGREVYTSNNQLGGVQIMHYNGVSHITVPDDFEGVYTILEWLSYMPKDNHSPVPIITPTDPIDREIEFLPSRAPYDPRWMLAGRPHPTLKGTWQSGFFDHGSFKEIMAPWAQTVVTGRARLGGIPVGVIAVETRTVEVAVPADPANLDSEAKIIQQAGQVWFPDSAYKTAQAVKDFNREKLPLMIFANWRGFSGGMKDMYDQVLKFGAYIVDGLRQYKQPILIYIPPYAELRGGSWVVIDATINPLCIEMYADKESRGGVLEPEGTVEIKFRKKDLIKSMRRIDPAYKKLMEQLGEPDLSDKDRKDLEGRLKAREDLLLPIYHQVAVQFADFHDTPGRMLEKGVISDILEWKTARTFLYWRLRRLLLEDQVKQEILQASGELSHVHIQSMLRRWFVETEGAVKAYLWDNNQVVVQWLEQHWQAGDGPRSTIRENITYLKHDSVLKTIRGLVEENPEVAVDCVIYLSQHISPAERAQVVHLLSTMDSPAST

| Compound | IC50 |
| --- | --- |
| CC(=O)NC(C)Cc1ccc(C#Cc2ccc3ncccc3c2)cc1 (stereo not drawn) [Example 2.74] | 1100 nM |
| CC(=O)NC(C)Cc1ccc(C#Cc2ccc(C(C)=O)cc2)cc1 (stereo not drawn) [Example 2.19] | 3600 nM |
| CC(=O)NC(C)c1ccc(C#Cc2ccc(OC(C)C)nc2)cc1 (stereo not drawn) [Example 2.50] | 900 nM |
| CCCOc1ccc(C#Cc2ccc(C(C)(C)CNC(C)=O)cc2)cc1 [Example 2.36] | 140 nM |
| CCOc1ccc(C#Cc2ccc(CC(C)NC(=O)c3ccco3)cc2)cc1 (stereo not drawn) [Example 4.59] | 110 nM |
| CC(=O)NC(C)Cc1ccc(C#Cc2cnn(-c3ccccc3)c2)cc1 (stereo not drawn) [Example 2.79] | 450 nM |
| CCOc1ccc(C#Cc2ccc(CC(C)NC(=O)c3cc[nH]n3)cc2)cc1 (stereo not drawn) [Example 4.16] | 1600 nM |
| CC(Cc1ccc(C#Cc2ccc(OC(C)C)nc2)cc1)NC(=O)C1CC1 (stereo not drawn) [Example 2.65] | 480 nM |
| CC(=O)NC(C)Cc1ccc(C#Cc2ccnc(Oc3ccccc3)c2)cc1 (stereo not drawn) [Example 2.98] | 150 nM |
| CC(=O)NC(C)Cc1ccc(C#Cc2ccc(OC3CCCC3)nc2)cc1 (stereo not drawn) [Example 2.25] | 170 nM |
| CC(Cc1ccc(C#Cc2ccc(C(C)C)cc2)cc1)NC(=O)C1CC1 (stereo not drawn) [Example 2.57] | 570 nM |
| CCOc1ccc(C#Cc2ccc(CC(C)NC(=O)C3CCNC3)cc2)cc1 (stereo not drawn) [Example 4.74] | 2800 nM |
| CCOc1ccc(C#Cc2ccc(CC(C)NC(=O)c3cncnc3)cc2)cc1 (stereo not drawn) [Example 4.14] | 1200 nM |
| CC(=O)NC(C)Cc1ccc(C#Cc2ccnc(OC(C)C)c2)cc1 (stereo not drawn) [Example 2.97] | 140 nM |
| CCOc1ccc(C#Cc2ccc(CC(C)NC(=O)C3CCC3)cc2)cc1 (stereo not drawn) [Example 4.20] | 180 nM |
| CC(=O)NC(C)Cc1ccc(C#Cc2ccc3c(ccn3CCO)c2)cc1 (stereo not drawn) [Example 1.25] | 5100 nM |
| CCOc1ccc(C#Cc2ccc(CC(C)NC(=O)C3CCCO3)cc2)cc1 (stereo not drawn) [Example 4.37] | 900 nM |
| COc1ccc(C#Cc2ccc(C(C)NC(C)=O)cc2)c(C)c1 (stereo not drawn) [Example 1.30] | 2100 nM |
| COc1ccc(C#Cc2ccc(CC(C)NC(C)=O)cc2)cc1 (stereo not drawn) [Example 2.30] | 330 nM |
| CCOc1ccc(C#Cc2ccc(C(C)NC(=O)CCO)cc2)cc1 (stereo not drawn) [Example 4.43] | 11000 nM |
| CCOc1ccc(C#Cc2ccc(C(C)NC(=O)C(C)O)cc2)cc1 (stereo not drawn) [Example 4.40] | 3700 nM |
| CC(=O)NCC(C)(C)c1ccc(C#Cc2ccc(OCC3CC3)cc2)cc1 [Example 2.37] | 100 nM |
| CCOc1ccc(C#Cc2ccc(CC(C)NC(=O)N(C)CC)cc2)cc1 (stereo not drawn) [Example 7.3] | 360 nM |
| CC(=O)NC(C)Cc1ccc(C#Cc2c(C)noc2C)cc1 (stereo not drawn) [Example 2.106] | 8200 nM |
| CCOc1ccc(C#Cc2ccc(C(C)NC(=O)N(C)C)cc2)cc1 (stereo not drawn) [Example 7.1, 3-(1-(4-((4-Ethoxyphenyl)ethynyl)phenyl)ethyl)-1,1-dimethylurea] | 620 nM |
| CC(=O)NC(C)Cc1ccc(C#Cc2ccn(CC(C)C)c(=O)c2)cc1 (stereo not drawn) [Example 2.82] | 1600 nM |
| COc1ccc(C#Cc2ccc(CC(C)NC(C)=O)cc2)c(C)c1 (stereo not drawn) [Example 1.26] | 320 nM |

Now from value to compound:

| IC50 | Compound |
| --- | --- |
| 6700 nM | CC(=O)NC(C)Cc1ccc(C#Cc2cccc(C(=O)N(C)c3ccccc3)c2)cc1 (stereo not drawn) [Example 8.40] |
| 130 nM | CC(=O)NC(C)Cc1ccc(C#Cc2ccc(-c3ccccc3)cc2)cc1 (stereo not drawn) [21.1] |
| 220 nM | CCC(CC)Oc1ccc(C#Cc2ccc(CC(C)NC(C)=O)cc2)cc1 (stereo not drawn) [Example 9.1, N-(1-(4-((4-(pentan-3yloxy)phenyl)ethynyl)phenyl)propan-2-yl)acetamide] |
| 220 nM | CC(=O)NC(C)Cc1ccc(C#Cc2cnc(NC3CCCC3)nc2)cc1 (stereo not drawn) [Example 13.8] |
| 4700 nM | COC(=O)NC(C)Cc1ccc(C#Cc2cnc(N3CCCC3)nc2)cc1 (stereo not drawn) [Example 13.34] |
| 3600 nM | CC(=O)N[C@@H](C)c1ccc(C#Cc2cnc(NCCC(F)(F)F)nc2)cc1 [Example 13.94] |
| 400 nM | CC(=O)N[C@@H](C)Cc1ccc(C#Cc2ccc(OCC(C)C)cc2)cc1 [Example 23.3] |
| 26300 nM | CC(=O)NC(C)Cc1ccc(C#Cc2ccc(C(=O)NCC3CCCO3)cc2)cc1 (stereo not drawn) [Example 8.7] |
| 200 nM | CC(=O)NC(C)Cc1ccc(C#Cc2cnc(N[C@@H]3CCc4ccccc43)nc2)cc1 (stereo partly drawn) [Example 13.63] |
| 220 nM | CCC(C)Nc1ncc(C#Cc2ccc(CC(C)NC(=O)N(C)C)cc2)cn1 (stereo not drawn) [Example 13.25] |
| 130 nM | CC(=O)NC(C)Cc1ccc(C#Cc2cnc(NCc3ccccc3C)nc2)cc1 (stereo not drawn) [Example 13.55] |
| 1100 nM | CCCN(C)C(=O)c1ccc(C#Cc2ccc(CC(C)NC(C)=O)cc2)cc1 (stereo not drawn) [Example 8.10] |
| 130 nM | CCCOc1ccc(C#Cc2ccc(CCC(C)NC(C)=O)cc2)cc1 (stereo not drawn) [Example 14.11] |
| 430 nM | CC(=O)NC(C)Cc1ccc(C#Cc2cnc(OCC3(C)CC3)nc2)cc1 (stereo not drawn) [Example 12.13] |
| 260 nM | CC(=O)NC(C)Cc1ccc(C#Cc2cnc(NCC(C)C)nc2)cc1 (stereo not drawn) [Example 13.20] |
| 180 nM | CC(=O)NC(C)Cc1ccc(C#Cc2ccc(OCC3(C)CC3)cc2)cc1 (stereo not drawn) [Example 9.11] |
| 1000 nM | CC(Cc1ccc(C#Cc2ccc(C(C)(C)C)cc2)cc1)NC(=O)C1CC1 (stereo not drawn) [Example 14.45] |
| 1000 nM | CCCOc1ncc(C#Cc2ccc(CC(C)NC(=O)OC)cc2)cn1 (stereo not drawn) [Example 12.26] |
| 2500 nM | CC(=O)NC(C)Cc1ccc(C#Cc2cnc(OCc3cc(C)on3)nc2)cc1 (stereo not drawn) [Example 12.14] |

| IC50 | Compound |
| --- | --- |
| 1200 nM | CC(=O)NC(C)Cc1ccc(C#Cc2cnc(N(C)C)nc2)cc1 (stereo not drawn) [Example 13.58] |
| 1800 nM | CC(=O)NC(C)Cc1ccc(C#Cc2cnc(OCc3ccccn3)nc2)cc1 (stereo not drawn) [Example 12.57] |
| 250 nM | CNc1ncc(C#Cc2ccc(CC(C)NC(C)=O)cc2)cn1 (stereo not drawn) [Example 13.60] |
| 2600 nM | CC(C)Nc1ncc(C#Cc2ccc(CC(C)NC(=O)C3CC3)cc2)cn1 (stereo not drawn) [Example 13.49] |
| 23300 nM | CC(=O)NC(C)Cc1ccc(C#Cc2cccc(C(=O)NC(C)c3ccccc3)c2)cc1 (stereo not drawn) [Example 8.41] |
| 600 nM | CC(=O)NC(C)Cc1ccc(C#Cc2cnc(NCC3CCCC3)nc2)cc1 (stereo not drawn) [Example 13.76] |
| 110 nM | CC(=O)NC(C)Cc1ccc(C#Cc2cnc(NCc3ccc(C)cc3)nc2)cc1 (stereo not drawn) [Example 13.79] |
| 50 nM | CC(=O)NC(C)Cc1ccc(C#Cc2ccc(OCC3CC3(F)F)cc2)cc1 (stereo not drawn) [Example 9.40] |
| 320 nM | CC(=O)NC(C)Cc1ccc(C#Cc2cnc(OCCC3CC3)nc2)cc1 (stereo not drawn) [Example 12.33] |
| 120 nM | COc1ccc(CNc2ncc(C#Cc3ccc(CC(C)NC(C)=O)cc3)cn2)cc1 (stereo not drawn) [Example 13.86] |
| 190 nM | CC(=O)NC(C)Cc1ccc(C#Cc2ccc(Oc3cncnc3)cc2)cc1 (stereo not drawn) [Example 10.1, N-(1-(4-((4-(Pyrimidin-5-yloxy)phenyl)ethynyl)phenyl)propan-2-yl)acetamide] |
| 4900 nM | CC(=O)NC(C)Cc1ccc(C#Cc2cnc(OCc3cccnc3)nc2)cc1 (stereo not drawn) [Example 12.56] |
| 70 nM | CC(=O)N[C@@H](C)c1ccc(C#Cc2ccc(OC3CCC3)cc2)cc1 [Example 14.7] |
| 150 nM | CC(=O)NC(C)Cc1ccc(C#Cc2cnc(NC(C)C3CC3)nc2)cc1 (stereo not drawn) [Example 13.66] |
| 280 nM | CC(=O)NC(C)Cc1ccc(C#Cc2cnc(N3CCC4(CCCC4)C3)nc2)cc1 (stereo not drawn) [Example 13.73] |
| 14300 nM | CCNC(=O)c1cccc(C#Cc2ccc(CC(C)NC(C)=O)cc2)c1 (stereo not drawn) [Example 8.38] |
| 6200 nM | CC(=O)NC(C)Cc1ccc(C#Cc2cccc(C(=O)N3CCCC3)c2)cc1 (stereo not drawn) [Example 8.48] |
| 2300 nM | CCNC(=O)NCC(C)c1ccc(C#Cc2cnc(OC3CCC3)nc2)cc1 (stereo not drawn) [Example 33.3] |
| 1200 nM | CSc1nccc(C#Cc2ccc(CC(C)NC(C)=O)cc2)n1 (stereo not drawn) [Example 14.1, N-{1-Methyl-2-[4-(2-methylsulfanyl-pyrimidin-4-ylethynyl)-phenyl]-ethyl}acetamide] |

| IC50 | Compound |
| --- | --- |
| 200 nM | CCCOc1ccc(C#Cc2ccc(C(C)CNC(=O)C3CC3)cc2)cc1 (stereo not drawn) [Example 32.2] |
| 620 nM | CC(=O)NC(C)Cc1ccc(C#Cc2ccnc(N3CCOCC3)n2)cc1 (stereo not drawn) [Example 11.42] |
| 5200 nM | CC(Cc1ccc(C#Cc2cnc(NCCF)nc2)cc1)NC(=O)C1CC1 (stereo not drawn) [Example 13.53] |
| 610 nM | COC(=O)NC(C)Cc1ccc(C#Cc2cnc(N3CCC4(CC4)C3)nc2)cc1 (stereo not drawn) [Example 13.29] |
| 1400 nM | CC(=O)NCCc1ccc(C#Cc2ccc(Oc3ccccc3)nc2)cc1 [Example 14.38] |
| 3700 nM | CC(Cc1ccc(C#Cc2ccc(Oc3cncnc3)nc2)cc1)NC(=O)C1CC1 (stereo not drawn) [Example 14.27] |
| 2400 nM | CC(=O)NC(C)Cc1ccc(C#Cc2ccc(C(=O)N(C)C3CCCC3)cc2)cc1 (stereo not drawn) [Example 8.13] |
| 530 nM | COc1ccc(Oc2ncc(C#Cc3ccc(CC(C)NC(C)=O)cc3)cn2)cc1 (stereo not drawn) [Example 12.50] |
| 14900 nM | CCN(CC)CCOc1ccc(C#Cc2ccc(CC(C)NC(C)=O)cc2)cc1 (stereo not drawn) [Example 9.18] |
| 2200 nM | CC(Cc1ccc(C#Cc2cnc(N3CCC3)nc2)cc1)NC(=O)C1CC1 (stereo not drawn) [Example 13.51] |
| 600 nM | CCOc1cc(C#Cc2ccc(CC(C)NC(=O)N(C)C)cc2)ccn1 (stereo not drawn) [Example 20.2] |
| 30000 nM | CC(=O)NC(C)Cc1ccc(C#Cc2cccc(C(=O)NCCN3CCOCC3)c2)cc1 (stereo not drawn) [Example 8.24] |
| 260 nM | CC(=O)NC(C)Cc1ccc(C#Cc2cnc(OC(C)C(F)(F)F)nc2)cc1 (stereo not drawn) [Example 12.38] |
| 7100 nM | CC(=O)NC(C)Cc1ccc(C#Cc2ccnc(OC(C)C)n2)cc1 (stereo not drawn) [Example 12.18] |
| 260 nM | CC(=O)NC(C)Cc1ccc(C#Cc2ccnc(N(C)C3CCCCC3)n2)cc1 (stereo not drawn) [Example 11.11] |
| 690 nM | COC(=O)NC(C)Cc1ccc(C#Cc2cnc(NC(C)C)nc2)cc1 (stereo not drawn) [Example 13.38] |
| 1300 nM | CC(=O)NC(C)Cc1ccc(C#Cc2ccnc(NCC(C)C)n2)cc1 (stereo not drawn) [Example 11.44] |
| 450 nM | CCOc1ccc(C#Cc2ccc(CC(C)NC(C)=O)cc2)nc1 (stereo not drawn) [Example 23.13] |
| 2300 nM | CC(=O)NC(C)Cc1ccc(C#Cc2cnc(OC(C)c3ccncc3)nc2)cc1 (stereo not drawn) [Example 12.35] |

— US8835472B2, “Compounds, pharmaceutical compositions and uses thereof” (Boehringer Ingelheim International GmbH, priority 2010, dated 2014)
